The values that follow come from patent publication US20080070867A1, “2-Imidazolone and 2-Imidazolidinone Heterocyclic Inhibitors of Tyrosine Phosphatases” (Metabasis Therapeutics, Inc., priority 2005, published 2008).

Broadly, the IC50 is the concentration that inhibits the measured activity by half.

In the assay the target is T1, Human recombinant PTP-1B (Homo sapiens, UniProt P18031).
T1 construct: Human recombinant PTP-1B, containing amino acids 1-321, fused to GST enzyme; GST (glutathione S-transferase)
T1 sequence (P18031 1-321): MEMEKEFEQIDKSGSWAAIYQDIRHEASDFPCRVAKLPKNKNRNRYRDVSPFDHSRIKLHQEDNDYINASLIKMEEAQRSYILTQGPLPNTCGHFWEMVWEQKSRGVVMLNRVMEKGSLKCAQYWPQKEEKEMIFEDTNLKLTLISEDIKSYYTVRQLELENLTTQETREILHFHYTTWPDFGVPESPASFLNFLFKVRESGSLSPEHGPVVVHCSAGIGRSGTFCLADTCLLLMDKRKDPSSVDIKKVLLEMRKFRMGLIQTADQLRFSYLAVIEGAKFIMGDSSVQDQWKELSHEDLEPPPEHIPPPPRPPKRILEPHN
Nature of the assay: Assay for PTP-1B Activity (pNPP substrate). The assay is classed as biochemical. The note with it: human recombinant PTP-1B (1-321) GST fusion, 2 mM pNPP, pH 7.4, 30° C., 20 min; read-out: Activity Code (IC50 range). In outline: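 GST-fused human PTP-1B (aa 1-321) hydrolysed 2 mM pNPP in 50 mM HEPES pH 7.4, 100 mM NaCl, 2 mM EDTA, 3 mM DTT for 20 min at 30 °C, after a 2 min compound premix. K2CO3 stopped the reaction, with pNP read at 405 nm. Initial rate was plotted against inhibitor concentration.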

Where only a bound is given, the exact number is not on record here.

On to `COc1cccc(Cn2ccn(Cc3ccc(C(F)(F)P(=O)(O)O)c(Br)c3)c2=O)c1` [Compound 60, ({2-Bromo-4-[3-(3-methoxy-benzyl)-2-oxo-2,3-dihydro-imidazol-1-ylmethyl]-phenyl}-difluoro-methyl)-phosphonic acid], for which the concentration for half-maximal inhibition (IC50) lay in the range of 2500 to 25000 nM.

As to `NC(=O)c1ccc(-c2cn(Cc3ccccc3)c(=O)n2Cc2ccc(C(F)(F)P(=O)(O)O)c(Br)c2)cc1` [Compound 27, ({4-[3-Benzyl-5-(4-carbamoyl-phenyl)-2-oxo-2,3-dihydro-imidazol-1-ylmethyl]-2-bromo-phenyl}-difluoro-methyl)-phosphonic acid], the 50% inhibitory concentration (IC50) lay in the range of 100 to 249 nM.

Regarding `O=C1N(Cc2ccccc2)CCN1Cc1ccc(C(F)(F)P(=O)(O)O)c(Br)c1` [Compound 89, {[4-(3-Benzyl-2-oxo-imidazolidin-1-ylmethyl)-2-bromo-phenyl]-difluoro-methyl}-phosphonic acid], the IC50 was 250 to 2500 nM.

For the compound `O=c1n(Cc2ccc(C(F)(F)P(=O)(O)O)c(Br)c2)ccn1Cc1ccc(C(F)(F)P(=O)(O)O)c(Br)c1` [Compound 88, [(2-Bromo-4-{3-[3-bromo-4-(difluoro-phosphono-methyl)-benzyl]-2-oxo-2,3-dihydro-imidazol-1-ylmethyl}-phenyl)-difluoro-methyl]-phosphonic acid], the half-inhibitory concentration (IC50) was under 99 nM.

As for `COC(=O)c1ccc(-c2c[nH]c(=O)n2Cc2ccc(C(F)(F)P(=O)(O)O)c(Br)c2)cc1` [Compound 41, 4-{3-[3-Bromo-4-(difluoro-phosphono-methyl)-benzyl]-2-oxo-2,3-dihydro-1H-imidazol-4-yl}-benzoic acid methyl ester], the half-inhibitory concentration (IC50) was 250 to 2500 nM.

As to `COC(=O)c1ccc(-c2cn(CCc3ccccc3)c(=O)n2Cc2ccc(C(F)(F)P(=O)(O)O)c(Br)c2)cc1` [Compound 12, 4-{3-[3-Bromo-4-(difluoro-phosphono-methyl)-benzyl]-2-oxo-1-phenethyl-2,3-dihydro-1H-imidazol-4-yl}-benzoic acid methyl ester], the IC50 fell in the range of 250 to 2500 nM.

Take `COC(=O)c1ccc(-c2cn(Cc3ccc(C(F)(F)P(=O)(O)O)c(Br)c3)c(=O)n2Cc2ccccc2)cc1` [Compound 67, 4-{3-Benzyl-1-[3-bromo-4-(difluoro-phosphono-methyl)-benzyl]-2-oxo-2,3-dihydro-1H-imidazol-4-yl}-benzoic acid methyl ester]: the IC50 was 250 to 2500 nM.

Consider `CC(C)OC(=O)OC(C)OP(=O)(O)C(F)(F)c1ccc(Cn2c(-c3ccc(S(C)(=O)=O)cc3)cn(C)c2=O)cc1Br` (centres unmarked) [Compound 70, ({2-Bromo-4-[5-(4-methanesulfonyl-phenyl)-3-methyl-2-oxo-2,3-dihydro-imidazol-1-ylmethyl]-phenyl}-difluoro-methyl)-phosphonic acid mono-(1-isopropoxy-carbonyloxy-ethyl) ester], for which the concentration for half-maximal inhibition (IC50) is over 25000 nM.
